Test results taken from ChEMBL document CHEMBL5291721, “A preclinical secondary pharmacology resource illuminates target-adverse drug reaction associations of marketed drugs” (Nat Commun, 2023).
Blank lines part the entries; values can stand above or below the compound they belong to.

Columns and labels:
[1] = target: T1, Corticotropin-releasing factor receptor 2 (Homo sapiens, UniProt Q13324)
T1 sequence (Q13324 whole entry): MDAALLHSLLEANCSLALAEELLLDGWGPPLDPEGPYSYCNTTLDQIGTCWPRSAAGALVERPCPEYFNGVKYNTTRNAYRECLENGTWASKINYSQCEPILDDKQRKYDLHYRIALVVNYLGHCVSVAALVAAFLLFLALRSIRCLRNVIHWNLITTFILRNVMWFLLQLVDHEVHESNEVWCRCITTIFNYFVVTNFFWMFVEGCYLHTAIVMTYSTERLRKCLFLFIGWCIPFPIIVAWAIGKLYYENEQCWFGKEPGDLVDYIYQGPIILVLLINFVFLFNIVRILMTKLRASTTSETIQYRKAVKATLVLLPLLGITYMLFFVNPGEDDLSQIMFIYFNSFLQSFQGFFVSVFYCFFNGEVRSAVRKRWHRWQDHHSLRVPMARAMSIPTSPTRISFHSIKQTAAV

Estrogen receptor = target: T2, Estrogen receptor (Homo sapiens, UniProt P03372)
T2 sequence (P03372 whole entry): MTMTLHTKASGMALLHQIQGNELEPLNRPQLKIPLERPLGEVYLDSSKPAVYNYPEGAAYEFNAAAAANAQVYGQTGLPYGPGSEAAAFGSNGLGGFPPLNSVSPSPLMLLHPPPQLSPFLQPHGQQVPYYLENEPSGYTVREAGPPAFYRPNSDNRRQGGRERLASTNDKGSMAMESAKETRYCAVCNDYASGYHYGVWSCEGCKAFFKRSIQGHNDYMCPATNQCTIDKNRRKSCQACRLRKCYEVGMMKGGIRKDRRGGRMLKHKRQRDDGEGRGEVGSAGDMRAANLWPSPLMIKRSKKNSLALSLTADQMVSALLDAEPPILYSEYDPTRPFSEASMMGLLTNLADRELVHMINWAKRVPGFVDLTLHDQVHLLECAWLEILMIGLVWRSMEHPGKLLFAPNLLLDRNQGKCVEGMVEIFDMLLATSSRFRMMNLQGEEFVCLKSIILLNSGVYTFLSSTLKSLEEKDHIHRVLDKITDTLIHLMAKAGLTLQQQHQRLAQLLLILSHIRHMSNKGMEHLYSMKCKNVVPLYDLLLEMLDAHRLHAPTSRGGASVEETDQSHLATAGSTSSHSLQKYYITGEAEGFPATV

[2] = target: T3, Gastric inhibitory polypeptide receptor (Homo sapiens, UniProt P48546)
T3 sequence (P48546 whole entry): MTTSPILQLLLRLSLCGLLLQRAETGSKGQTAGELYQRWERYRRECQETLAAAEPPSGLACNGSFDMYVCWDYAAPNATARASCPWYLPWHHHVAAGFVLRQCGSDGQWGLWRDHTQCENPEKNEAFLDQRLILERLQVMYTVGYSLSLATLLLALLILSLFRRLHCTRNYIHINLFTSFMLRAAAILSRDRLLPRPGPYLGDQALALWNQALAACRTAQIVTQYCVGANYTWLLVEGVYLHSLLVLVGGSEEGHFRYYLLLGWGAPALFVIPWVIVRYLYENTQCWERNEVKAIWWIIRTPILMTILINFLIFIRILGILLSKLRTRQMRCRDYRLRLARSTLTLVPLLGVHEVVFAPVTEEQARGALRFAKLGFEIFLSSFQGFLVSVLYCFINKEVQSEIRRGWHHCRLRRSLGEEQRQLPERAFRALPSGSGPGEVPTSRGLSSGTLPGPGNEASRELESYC

[3] = target: T4, Muscarinic acetylcholine receptor M2 (Homo sapiens, UniProt P08172)
T4 sequence (P08172 whole entry): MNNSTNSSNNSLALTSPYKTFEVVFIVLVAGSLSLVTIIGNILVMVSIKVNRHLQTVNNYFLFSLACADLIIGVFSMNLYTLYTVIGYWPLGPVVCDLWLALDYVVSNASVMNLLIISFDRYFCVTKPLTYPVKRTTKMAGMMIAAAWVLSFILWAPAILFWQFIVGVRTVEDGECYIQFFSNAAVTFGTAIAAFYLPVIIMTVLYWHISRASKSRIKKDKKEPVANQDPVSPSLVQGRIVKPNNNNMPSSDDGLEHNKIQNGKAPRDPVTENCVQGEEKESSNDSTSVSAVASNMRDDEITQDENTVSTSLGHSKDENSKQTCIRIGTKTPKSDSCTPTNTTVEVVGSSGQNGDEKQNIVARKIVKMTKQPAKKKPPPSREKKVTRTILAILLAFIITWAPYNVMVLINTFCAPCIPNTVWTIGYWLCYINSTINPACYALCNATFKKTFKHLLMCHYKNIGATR

D(4) dopamine receptor = target: T5, D(4) dopamine receptor (Homo sapiens, UniProt P21917)
T5 sequence (P21917 whole entry): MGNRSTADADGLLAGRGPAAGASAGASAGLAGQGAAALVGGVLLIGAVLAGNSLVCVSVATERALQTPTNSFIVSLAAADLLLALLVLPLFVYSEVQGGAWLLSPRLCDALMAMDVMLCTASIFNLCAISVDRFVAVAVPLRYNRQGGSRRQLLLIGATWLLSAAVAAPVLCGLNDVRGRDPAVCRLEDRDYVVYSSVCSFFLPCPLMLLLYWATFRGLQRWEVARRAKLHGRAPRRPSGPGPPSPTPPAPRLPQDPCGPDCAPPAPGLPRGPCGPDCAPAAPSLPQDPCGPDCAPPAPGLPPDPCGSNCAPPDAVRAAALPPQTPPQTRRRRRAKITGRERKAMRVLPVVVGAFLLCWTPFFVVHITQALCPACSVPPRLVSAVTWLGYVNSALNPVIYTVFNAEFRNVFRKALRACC

[4] = target: T6, Gamma-aminobutyric acid receptor subunit alpha-1/alpha-2/beta-2/gamma-2 (Homo sapiens, UniProt P14867+P18507+P47869+P47870); assay type: protein-complex assay
T6 sequence (P14867 whole entry): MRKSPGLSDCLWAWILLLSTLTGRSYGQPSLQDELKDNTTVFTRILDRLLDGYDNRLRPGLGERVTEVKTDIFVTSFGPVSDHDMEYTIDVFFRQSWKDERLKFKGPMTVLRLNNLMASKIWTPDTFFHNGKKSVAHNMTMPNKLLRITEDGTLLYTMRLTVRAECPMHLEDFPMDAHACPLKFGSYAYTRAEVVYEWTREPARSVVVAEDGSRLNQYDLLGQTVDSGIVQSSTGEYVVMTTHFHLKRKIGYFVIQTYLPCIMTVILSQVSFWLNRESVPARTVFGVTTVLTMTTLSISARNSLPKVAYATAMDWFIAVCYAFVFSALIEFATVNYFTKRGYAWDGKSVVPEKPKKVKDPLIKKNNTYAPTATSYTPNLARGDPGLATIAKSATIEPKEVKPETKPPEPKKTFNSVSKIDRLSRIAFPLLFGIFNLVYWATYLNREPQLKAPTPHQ
T6 sequence (P47870 whole entry): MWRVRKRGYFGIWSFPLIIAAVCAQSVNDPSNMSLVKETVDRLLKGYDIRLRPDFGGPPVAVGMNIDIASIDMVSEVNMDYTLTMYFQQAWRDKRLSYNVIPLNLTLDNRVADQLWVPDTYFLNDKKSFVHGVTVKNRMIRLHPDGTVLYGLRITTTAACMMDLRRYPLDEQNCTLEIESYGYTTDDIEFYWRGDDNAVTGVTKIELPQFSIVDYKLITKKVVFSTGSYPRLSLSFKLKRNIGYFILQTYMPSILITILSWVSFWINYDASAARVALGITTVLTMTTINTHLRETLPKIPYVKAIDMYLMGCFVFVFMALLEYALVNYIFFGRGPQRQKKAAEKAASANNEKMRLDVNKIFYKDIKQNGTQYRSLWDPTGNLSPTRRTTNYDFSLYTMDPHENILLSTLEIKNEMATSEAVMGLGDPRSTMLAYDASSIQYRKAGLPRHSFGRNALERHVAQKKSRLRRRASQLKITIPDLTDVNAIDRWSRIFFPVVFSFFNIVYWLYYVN
T6 sequence (P18507 whole entry): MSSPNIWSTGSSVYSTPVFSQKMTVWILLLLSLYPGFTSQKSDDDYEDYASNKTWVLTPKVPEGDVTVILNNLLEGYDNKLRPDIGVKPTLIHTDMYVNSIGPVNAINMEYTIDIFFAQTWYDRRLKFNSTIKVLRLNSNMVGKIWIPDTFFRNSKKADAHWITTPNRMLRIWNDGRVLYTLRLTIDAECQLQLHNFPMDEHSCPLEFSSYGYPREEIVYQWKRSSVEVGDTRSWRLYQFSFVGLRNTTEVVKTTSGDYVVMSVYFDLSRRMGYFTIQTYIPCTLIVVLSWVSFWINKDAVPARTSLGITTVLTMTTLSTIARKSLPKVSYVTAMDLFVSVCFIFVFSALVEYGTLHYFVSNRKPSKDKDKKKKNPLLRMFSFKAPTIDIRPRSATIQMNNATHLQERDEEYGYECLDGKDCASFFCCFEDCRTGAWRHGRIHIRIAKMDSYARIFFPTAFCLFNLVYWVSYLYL
T6 sequence (P47869 whole entry): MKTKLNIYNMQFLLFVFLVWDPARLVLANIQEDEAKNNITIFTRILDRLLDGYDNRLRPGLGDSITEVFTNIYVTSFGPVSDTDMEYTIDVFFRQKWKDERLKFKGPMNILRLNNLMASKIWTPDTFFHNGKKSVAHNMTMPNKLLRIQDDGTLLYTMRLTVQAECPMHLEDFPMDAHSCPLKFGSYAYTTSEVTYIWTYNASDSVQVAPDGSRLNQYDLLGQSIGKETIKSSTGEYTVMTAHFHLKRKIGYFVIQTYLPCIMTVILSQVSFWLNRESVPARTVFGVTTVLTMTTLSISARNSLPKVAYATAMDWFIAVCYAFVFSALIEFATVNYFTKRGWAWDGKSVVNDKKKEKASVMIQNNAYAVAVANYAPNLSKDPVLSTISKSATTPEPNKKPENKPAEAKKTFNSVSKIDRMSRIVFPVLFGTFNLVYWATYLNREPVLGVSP

[5] = target: T6, Gamma-aminobutyric acid receptor subunit alpha-1/alpha-2/beta-2/gamma-2; assay type: functional, cell-based
Further: assay procedure not described here.

AC50 [1]: > 30 µM
AC50 (Estrogen receptor): > 30 µM
AC50 [2]: > 30 µM
AC50 [3]: > 10 µM
SMILES: Clc1ccc2nsnc2c1NC1=NCCN1 [TIZANIDINE]

AC50 (Estrogen receptor): > 30 µM
SMILES: COc1ccccc1OCC(O)CN1CCN(CC(=O)Nc2c(C)cccc2C)CC1 (stereo not drawn) [RANOLAZINE]

AC50 [1]: > 30 µM
AC50 (D(4) dopamine receptor): > 10 µM
AC50 (Estrogen receptor): > 30 µM
AC50 [2]: > 30 µM
AC50 [3]: > 10 µM
SMILES: CCOC(=O)[C@H](CCc1ccccc1)N[C@@H](C)C(=O)N1[C@H](C(=O)O)C[C@@H]2CCC[C@@H]21

SMILES: COC(c1ccccc1)(c1ccccc1)[C@H](Oc1nc(C)cc(C)n1)C(=O)O [AMBRISENTAN]
AC50 [4]: > 30 µM

SMILES: OCCN1C[C@H](O)[C@@H](O)[C@H](O)[C@H]1CO [MIGLITOL]
AC50 [4]: > 30 µM

AC50 (Estrogen receptor): > 10 µM
SMILES: CN(C)/N=N/c1[nH]cnc1C(N)=O [DACARBAZINE]

SMILES: CCCCCCOc1nsnc1C1=CCCN(C)C1 [XANOMELINE]
AC50 [4]: > 30 µM

SMILES: C[N+]1(C)CCC(OC(=O)C(O)(c2ccccc2)C2CCCC2)C1 (stereo not drawn) [GLYCOPYRRONIUM BROMIDE]
AC50 (Estrogen receptor): > 30 µM

SMILES: COc1cc(NC(C)CCCN)c2ncccc2c1 (stereo not drawn) [PRIMAQUINE]
AC50 (Estrogen receptor): 6.7 µM

SMILES: CN(C)CCN1C(=O)c2ccccc2N(C)c2ccccc21 [DIBENZEPIN]
AC50 [4]: > 30 µM

AC50 [1]: > 30 µM
AC50 (D(4) dopamine receptor): > 10 µM
AC50 [2]: > 30 µM
AC50 [3]: > 10 µM
SMILES: C[C@]12CCC(=O)C=C1CC[C@@H]1[C@@H]2[C@@H](O)C[C@@]2(C)[C@H]1CC[C@]2(O)C(=O)CO [HYDROCORTISONE]

SMILES: Cc1cn([C@H]2C[C@H](N=[N+]=[N-])[C@@H](CO)O2)c(=O)[nH]c1=O [ZIDOVUDINE]
AC50 [1]: > 30 µM
AC50 (D(4) dopamine receptor): > 10 µM
AC50 (Estrogen receptor): > 30 µM
AC50 [2]: > 30 µM
AC50 [3]: > 10 µM

AC50 (Estrogen receptor): > 30 µM
SMILES: O=C1Nc2ccc(Cl)cc2[C@@](C#CC2CC2)(C(F)(F)F)O1 [EFAVIRENZ]

AC50 (Estrogen receptor): > 10 µM
SMILES: Nc1ccn([C@H]2CC[C@@H](CO)O2)c(=O)n1 [ZALCITABINE]

SMILES: O=C(O[C@H]1C[C@H]2CC[C@@H](C1)[N+]21CCCC1)C(O)(c1ccccc1)c1ccccc1 [TROSPIUM]
AC50 [3]: 0.026 µM

SMILES: CC[C@H]1[C@@H](O)[C@@H]2[C@H](CC[C@]3(C)[C@@H]([C@H](C)CCC(=O)O)CC[C@@H]23)[C@@]2(C)CC[C@@H](O)C[C@@H]12 [OBETICHOLIC ACID]
AC50 (Estrogen receptor): > 30 µM
AC50 [4]: > 30 µM

SMILES: CC(C)(S)[C@@H](N)C(=O)O [PENICILLAMINE]
AC50 [4]: > 30 µM

AC50 [1]: > 30 µM
AC50 (D(4) dopamine receptor): > 10 µM
AC50 (Estrogen receptor): > 30 µM
AC50 [2]: > 30 µM
SMILES: CC1=C(C(=O)O)N2C(=O)[C@@H](NC(=O)[C@H](N)c3ccccc3)[C@H]2SC1 [CEPHALEXIN ANHYDROUS]

SMILES: C=CCc1ccccc1OCC(O)CNC(C)C (stereo not drawn) [ALPRENOLOL]
AC50 [4]: > 0.3 µM

SMILES: COCCCN1CCC(NC(=O)c2cc(Cl)c(N)c3c2OCC3)CC1 [PRUCALOPRIDE]
AC50 [5]: > 30 µM
